{"source": "ChEMBL document CHEMBL5608235", "about": "“Tricyclic Benzo[1,3]oxazinyloxazolidinones as Potent Antibacterial Agents against Drug-Resistant Pathogens” (J Med Chem, 2024)", "key": {"[1]": {"test": "MRT (0 to infinity) in BALB/c mouse at 10 mg/kg,po administration measured upto 24 hrs by LC-MS/MS analysis", "format": "ADME, organism-based", "conditions": "in vivo"}, "[2]": {"system": "Staphylococcus aureus", "test": "Bacteriostatic activity against methicillin resistant Staphylococcus aureus ATCC 33592 at 1 times MIC incubated for 2 to 24 hrs by time-kill assay", "format": "functional, organism-based", "conditions": "time 2-24 hrs"}, "[3]": {"system": "Staphylococcus epidermidis", "test": "Antibacterial activity against methicillin resistant Staphylococcus epidermidis clinical isolate 20-2 assessed as inhibition of bacterial growth incubated for 7 days by alamar blue assay", "format": "functional", "conditions": "clinical isolate 20-2, 168 h, time 7 day"}, "[4]": {"test": "Metabolic stability in human liver microsomes assessed as compound remaining at 10 uM incubated for 60 mins in absence of NADPH by LC-MS/MS analysis", "format": "ADME, Microsome", "conditions": "read-out: Stability"}, "[5]": {"system": "Cell membrane", "test": "Disruption of cell membrane integrity in Staphylococcus aureus ATCC 25923 assessed as increase in blue fluorescence at 0.5 ug/ml incubated for 1 hr by […] and propidium iodide double staining based confocal microscopic analysis", "format": "cell membranes", "conditions": "dose 0.5 µg/ml"}, "[6]": {"system": "Bacillus subtilis", "test": "Antibacterial activity against Bacillus subtilis ATCC6633 assessed as inhibition of bacterial growth incubated for 18 hrs by microdilution broth assay", "format": "functional"}, "[7]": {"test": "Free AUC in BALB/c mouse at 10 mg/kg,po administration measured upto 24 hrs by LC-MS/MS analysis", "format": "ADME, organism-based", "conditions": "in vivo"}, "[8]": {"system": "Staphylococcus aureus", "test": "Inhibition of biofilm formation in methicillin resistant Staphylococcus aureus ATCC 33592 at 0.1 to 10 ug/ml incubated for 48 hrs by crystal violet staining based assay", "format": "functional, organism-based", "conditions": "dose 0.1-10 µg/ml"}, "[9]": {"system": "Enterococcus faecalis", "test": "Antibacterial activity against Enterococcus faecalis ATCC29212 assessed as inhibition of bacterial growth incubated for 18 hrs by microdilution broth assay", "format": "functional"}, "[10]": {"system": "Staphylococcus aureus", "test": "Antibacterial activity against methicillin resistant Staphylococcus aureus ATCC 33592 infected in cyclophosphamide-induced immunosuppressed Kunming mouse assessed as reduction in congestion in spleen at 50 mg/kg,po administration measured after 24 hrs by hematoxylin and eosin staining based microscopy", "format": "functional, organism-based"}, "[11]": {"test": "Terminal half life in BALB/c mouse at 1 mg/kg,iv administration measured upto 24 hrs by LC-MS/MS analysis", "format": "ADME, organism-based", "conditions": "in vivo, read-out: beta t1/2 (converted)"}, "[12]": {"test": "Metabolic stability in human liver microsomes assessed as substrate remaining at 10 uM incubated for 60 mins in presence of NADPH by LC-MS/MS analysis", "format": "ADME, Microsome", "conditions": "read-out: Stability"}, "[13]": {"system": "Cell membrane", "test": "Disruption of cell membrane in methicillin resistant Staphylococcus aureus ATCC 33592 assessed as cell lysis at 0.5 ug/ml incubated for 6 hrs by Scanning electron microscopic analysis", "format": "cell membranes", "conditions": "dose 0.5 µg/ml"}, "[14]": {"system": "Staphylococcus aureus", "test": "Inhibition of protein synthesis in Staphylococcus aureus ATCC 29213 by translation assay", "format": "functional, organism-based"}, "[15]": {"test": "Metabolic stability in ICR mouse liver microsomes assessed as substrate remaining at 10 uM incubated for 60 mins in presence of NADPH by LC-MS/MS analysis", "format": "ADME, Microsome", "conditions": "read-out: Stability"}, "[16]": {"system": "Staphylococcus aureus", "test": "Antibacterial activity against Linezolid resistant Staphylococcus aureus clinical isolate 20-2 assessed as inhibition of bacterial growth incubated for 7 days by alamar blue assay", "format": "functional", "conditions": "clinical isolate 20-2, 168 h, time 7 day"}}, "note": "Calls of active or inactive are those of the source. No cut-off for these calls is given here.", "data": [{"smiles": "CC(=O)NC[C@@H]1OC(=O)N2Cc3cc(-c4ccc(C#N)cc4)c(F)cc3O[C@@H]12", "values": [{"measurement": "MRT inf", "setting": "[1]", "value": 17.3, "unit": "h"}, {"measurement": "Activity", "setting": "[2]", "value": "Active"}, {"measurement": "MIC", "setting": "[3]", "value": 0.06, "unit": "µg/mL"}, {"measurement": "remaining at 1 h, 10 µM", "setting": "[4]", "value": 120, "unit": "%"}, {"measurement": "Activity", "setting": "[5]", "value": "Active"}, {"measurement": "MIC", "setting": "[6]", "value": 0.032, "unit": "µg/mL"}, {"measurement": "fAUC", "setting": "[7]", "value": 14940, "unit": "ng·h/mL"}, {"measurement": "inhibition", "setting": "[8]", "value": "Active"}, {"measurement": "MIC", "setting": "[9]", "value": 1, "unit": "µg/mL"}, {"measurement": "Activity", "setting": "[10]", "value": "Active"}, {"measurement": "half-life", "setting": "[11]", "value": 7.9, "unit": "h"}, {"measurement": "remaining at 1 h, 10 µM", "setting": "[12]", "value": 116, "unit": "%"}, {"measurement": "Activity", "setting": "[13]", "value": "Active"}, {"measurement": "IC50", "setting": "[14]", "value": 1.5, "unit": "µg/mL"}, {"measurement": "remaining at 1 h, 10 µM", "setting": "[15]", "value": 100, "unit": "%"}, {"measurement": "MIC", "setting": "[16]", "value": 8, "unit": "µg/mL"}]}]}
